{"source": "patent US20100210596A1", "about": "“USE OF AMINOPYRIMIDINE COMPOUNDS IN THE TREATMENT OF IMMUNE DISORDERS” (priority 2006, published 2010)", "key": {"[1]": {"tested_on": "NOD mice injected with cyclophosphamide (CY)", "test": "Cyclophosphamide model: diabetes incidence in CY-injected NOD mice", "assay_type": "in vivo", "conditions": "14.5 week-old NOD mice, CY 300 mg/kg i.p., Gleevec 1.5 mg/mouse/day oral for 7 weeks; FIG. 3", "experimental": "14.5 week-old NOD mice were injected intraperitoneally (i.p.) with cyclophosphamide (CY) (300 mg/kg) in conjunction with daily oral Gleevec therapy or control peanut oil. Gleevec treatment (1.5 mg/mouse/day) lasted 7 weeks. Mice were tested for diabetes based on blood glucose. Mice with two consecutive glucose readings of greater than 250 mg/dl were considered diabetic."}, "NOD mice [2]": {"tested_on": "NOD mice", "test": "Gleevec prevention studies in pre-diabetic NOD mice (diabetes incidence by blood glucose)", "assay_type": "in vivo, mouse", "experimental": "(§1) Further studies were carried out to determine if Gleevec could be discontinued and maintain its efficacy. New onset mice were treated as above for only 3 weeks after onset and examined for disease recurrence (FIG. 1B). […] of mice (7/8) went into remission during the 3 weeks of therapy. For the majority of mice, remission was short lived as 5/8 mice (FIG. 1B, solid circles) became hyperglycemic within 1-2 weeks after cessation of drug therapy. However, 3/8 mice (FIG. 1B, open circles) remained in remission more than 6 weeks after the last dose of Gleevec. […] Ten week old NOD mice were treated daily with Gleevec ([…]) or peanut oil and followed for disease incidence. None of the Gleevec-treated and 50% of the peanut oil-treated mice were diabetic at 18 weeks of age.\nPre-diabetic NOD mice were treated with Gleevec for 7 weeks starting at 12 weeks of age. The Gleevec was emulsified in peanut oil and given by gavage (100 mg/kg) daily. Control animals were treated with peanut oil alone. Mice were tested for diabetes based on blood glucose. Mice with two consecutive glucose readings of greater than 250 mg/dl were considered diabetic."}, "NOD mice [3]": {"tested_on": "NOD mice", "test": "Treatment of new onset diabetic NOD mice with Gleevec (remission of diabetes, blood glucose)", "assay_type": "in vivo, mouse", "experimental": "NOD mice were treated by gavage (oral) daily (M-F) with 50 mg/kg of commercially-available Gleevec suspended in peanut oil. Treatment was initiated at the time of disease onset (blood sugars above 250 mg/dl) and continued for the duration of the experiment.\nas §1\nDiabetic NOD mice (250-350 mg/dL) were treated with Gleevec for a short course (3 weeks) or longer courses (8-10 weeks) daily 3 times per week (3×/wk); and blood glucose assessed as described in Example 2. […] The majority of the daily, 8-10 week-treated group remained normal glycemic for >2 months after ending therapy. Peanut oil treatment had no effect in reversing diabetes.\nIn another dosing regimen, NOD mice were treated with Gleevec (100 mg/kg) by daily oral gavage Monday through Friday for 2 weeks, followed by daily Gleevec (100 mg/kg) via oral gavage three times per week for 6 weeks. Four of 5 mice went into disease remission."}, "[4]": {"conditions": "100 mg/kg oral gavage daily Monday-Friday for 2 weeks, then 100 mg/kg three times per week for 6 weeks"}, "[5]": {"conditions": "new onset mice, 50 mg/kg oral daily for only 3 weeks after onset, FIG. 1B"}}, "data": [{"smiles": "CS(=O)(=O)O.Cc1ccc(NC(=O)c2ccc(CN3CCN(C)CC3)cc2)cc1Nc1nccc(-c2cccnc2)n1", "note": "[Gleevec]", "values": [{"measurement": "incidence of diabetes versus peanut oil-treated CY-treated control", "setting": "[1]", "value": "significantly reduced"}, {"measurement": "percent of mice in which diabetes was prevented", "setting": "NOD mice [2]; pre-diabetic NOD mice, 100 mg/kg gavage daily for 7 weeks starting at 12 weeks of age, diabetic = two consecutive glucose readings >250 mg/dl, FIG. 2", "value": 90, "unit": "%"}, {"measurement": "mice diabetic at 18 weeks of age", "setting": "NOD mice [2]; ten week old NOD mice treated daily (50 mg/ml as printed), preliminary experiments", "value": "None"}, {"measurement": "mice going into remission", "setting": "NOD mice [3]; 50 mg/kg oral gavage daily (M-F) in peanut oil, started at disease onset (blood sugars above 250 mg/dl), continued for duration of experiment, FIG. 1A", "value": "All of the treated mice went into remission"}, {"measurement": "relapse during the course of the study", "setting": "NOD mice [3]; 50 mg/kg oral gavage daily (M-F), continuous treatment from onset, FIG. 1A", "value": "none relapsed"}, {"measurement": "mice that maintained normoglycemia for the duration of the experiment (>30 weeks after onset)", "setting": "NOD mice [3]; [4]", "value": "Three of the 5"}, {"measurement": "mice that went into disease remission (number of total)", "setting": "NOD mice [3]; [4]", "value": "Four of 5"}, {"measurement": "mice that remained in remission more than 6 weeks after the last dose (number/total)", "setting": "NOD mice [3]; 3-week treatment, FIG. 1B open circles", "value": "3/8"}, {"measurement": "mice that became hyperglycemic within 1-2 weeks after cessation of drug therapy (number/total)", "setting": "NOD mice [3]; 3-week treatment, FIG. 1B solid circles", "value": "5/8"}, {"measurement": "blood glucose levels maintained in treated mice", "setting": "NOD mice [3]; NOD mice treated with Gleevec after onset", "value": "approximately 200 mg/dl"}, {"measurement": "time the majority of the group remained normal glycemic after ending therapy", "setting": "NOD mice [3]; daily, 8-10 week-treated group", "value": "> 2", "unit": "months"}, {"measurement": "reversal of diabetes", "setting": "NOD mice [3]; diabetic NOD mice (250-350 mg/dL), all treatments: 3 weeks or 8-10 weeks, daily or 3x/wk", "value": "effective in reversing diabetes in the majority of mice"}, {"measurement": "mice that went into remission during the 3 weeks of therapy (number/total)", "setting": "NOD mice [3]; [5]", "value": "7/8"}, {"measurement": "percent of mice that went into remission during the 3 weeks of therapy", "setting": "NOD mice [3]; [5]", "value": "Greater than 90%"}, {"measurement": "long term maintenance (>20 week) of normoglycemia", "setting": "NOD mice [3]; short course 3 weeks versus long course 8-10 weeks", "value": "less evident in short term 3 week treatment) than long term 8-10 week treated mice"}]}]}
